Experimental data as given in patent US20260234123A1, “Inhibitors of NLRP3” (Mwyngil Therapeutics, Inc., priority 2023, published 2026).
pEC50: −log10 of the molar value. Where two headings read alike, the source gives them in different places.

Test system: IL1b release THP-1
Assay: IL1b release THP-1 (ELISA)
Type: cell-based
Conditions: Homo sapiens; for pEC50: average EC50, THP-1 cells primed with 1 μg/ml LPS 4 h, stimulated with 10 μM Nigericin 2 h, IL-1β in supernatant by ELISA, read-out: THP 1 IL 1b, EC50
Experimental: Example A. Primary Assays Used to Determine IL1b Release THP-1 (ELISA)
• Microbiological safety cabinet, classII (NuAire, USA) • CO2 incubator (VWR Science, USA) • Countess Automated Cell Counter (Invitrogen, USA, cat. number C10227) • Centrifuge CM 6M (Elmi, Latvia) • Serological pipettes 2, 5, 10, 25, 50, 100 ml sterile (Santa Cruz Biotechnology, Inc., USA, sc-200277, sc-200279, sc-200281, sc-200283, Sc-213234, sc-516777) • Single and multichannel pipettes 0.2-10 μL, 50-1200 μL (Eppendorf AG-Hamburg, Germany) • 50 mL PP sterile tubes (Greiner, cat. Number 210261).
• RPMI-1640 (PanEco, C330) • Sodium pyruvate (Paneco, cat. number Φ023) • Non-Essential amino acids 50× (Paneco, Φ116) • Essential amino acids 50× (Paneco, Φ115/50) • FBS (Hyclone Laboratories Inc, USA, SV30160.03) • Antibiotic-antimycotic (Gibco, USA, 15240-062) • 2-mercaptoethanol 1000×55 mM (Gibco, USA, 21985-023) • LPS-EB ultrapure (invivogen, cat. number tlrl-3pelps) • Nigericin (Sigma, cat. number N7143) • ELISA kit, IL-1beta (Cat #A-8766, Interleukin-1 beta-EIA-BEST, Vector Best). LPS Preparation (5 mg/ml): • 1. Add 1 ml of endotoxin-free water according manufacturer's protocol • 2. Vortex until complete solubilization • 3. Aliquote and store at […] for long term storage.
• 1. Add methanol to 10 mg of powder to produce the 10 mM Nigericin solution • 2. Vortex until complete solubilization • 3. Store at 4° C.
THP-1 cells were propagated in RPMI-1640 (10% FBS, Antibiotic-antimycotic 1×, non-Essential amino acids 1×, Essential amino acids 1×, Sodium pyruvate 2×, 2-mercaptoethanol 0.05 mM) at 37° C. and at 5% CO2 in an incubator.
• 1. THP-1 cells were spined at 100 g for 5 min in 50 ml tube. • 2. THP-1 cells were resuspended in warm culture medium (w/o FBS, w/o Antibiotic-antimycotic, non-Essential amino acids 1×, Essential amino acids 1×, Sodium pyruvate 2×) to the concentration 1,3×10^6 cells. • 3. THP-1 cells were primed in tube with 1 μg/ml of LPS for 4 h at 37° C. and at 5% CO2 in an incubator. • 4. THP-1 cells were stimulated with 10 μM of Nigericin (Cat #N7143-10 MG, Sigma Aldrich) for 2 h at 37° C. and at 5% CO2 in an incubator. • 5. After the full activation, the supernatant was collected and the levels of IL-1β were assessed via ELISA according manufacturer instructions (Cat #A-8766, Vector Best).
The average EC50 values are shown in Table A, wherein “A” corresponds to EC50: A≤0.5 μM, “B” corresponds to 0.5 μM<EC50≤1.0 μM, “C” 1.0 μM<EC50≤5.0 μM, “D” corresponds to 5.0 μM<EC50≤30 μM and “E” corresponds to EC50>30 μM.

SMILES	pEC50	EC50 (THP-1, read-out: THP 1 IL 1b, EC50, μM)
CCN1CCC[C@@H](Nc2cc(C)c(-c3ccc(C(F)(F)F)cc3NS(=O)(=O)C3CC3)nn2)C1 [Compound 65, (R)—N-(2-(6-((1-Ethylpiperidin-3-yl)amino)-4-methylpyridazin-3-yl)-5-(trifluoromethyl)phenyl) cyclopropanesulfonamide]	> 6.30	–
CN1CCC[C@@H](Nc2nnc(-c3ccc(C(F)(F)F)c(N)c3N)cc2C(F)(F)F)C1 [Compound 102, 3-[6-[[(3R)-1-methyl-3-piperidyl]amino]-5-(trifluoromethyl)pyridazin-3-yl]-6-(trifluoromethyl)benzene-1,2-diamine]	4.52 to 5.30	–
CNc1cc(C(F)(F)F)ccc1-c1cc(C)c(N[C@@H]2CCCN(C(C)C)C2)nn1 [Compound 119, N-[(3R)-1-isopropyl-3-piperidyl]-4-methyl-6-[2-(methylamino)-4-(trifluoromethyl)phenyl]pyridazin-3-amine]	> 6.30	–
Cc1cc(N[C@@H]2CCCN(C(C)C)C2)nnc1-c1ccc(C(F)(F)F)cc1NC(=O)C(C)C [Compound 132, (R)—N-(2-(6-((1-Isopropylpiperidin-3-yl)amino)-4-methylpyridazin-3-yl)-5-(trifluoromethyl)phenyl) isobutyramide]	> 6.30	–
Cc1cc(N[C@@H]2CCCN(CCO)C2)nnc1-c1ccc(C(F)(F)F)c2cn[nH]c12 [Compound 16, (R)-2-(3-((5-Methyl-6-(4-(trifluoromethyl)-1H-indazol-7-yl)pyridazin-3-yl)amino)piperidin-1-yl) ethan-1-ol]	5.30 to 6.00	–
Cc1cc(N[C@@H]2CCCN(C)C2)nnc1-c1ccc(C(F)(F)F)c2c1NS(=O)(=O)N2 [Compound 10, (R)-4-(4-Methyl-6-((1-methylpiperidin-3-yl)amino)pyridazin-3-yl)-7-(trifluoromethyl)-1,3-dihydrobenzo[c][1,2,5]thiadiazole 2,2-dioxide]	4.52 to 5.30	–
CCN1CCC[C@@H](Nc2nnc(-c3ccc(C(F)(F)F)cc3NS(=O)(=O)CC)cc2C)C1 [Compound 62, (R)—N-(2-(6-((1-Ethylpiperidin-3-yl)amino)-5-methylpyridazin-3-yl)-5-(trifluoromethyl)phenyl) ethanesulfonamide]	> 6.30	–
Cc1cc(-c2ccc(C(F)(F)F)cc2NC(=O)C(C)(C)C)nnc1N[C@@H]1CCCN(C(C)C)C1 [Compound 135, N-[2-[6-[[(3R)-1-isopropyl-3-piperidyl]amino]-5-methyl-pyridazin-3-yl]-5-(trifluoromethyl)phenyl]-2,2-dimethyl-propanamide]	6.00 to 6.30	–
Cc1cc(-c2ccc(C(F)(F)F)cc2NS(C)(=O)=O)nnc1N[C@@H]1CCCN(C2CCCCC2)C1 [Compound 32, (R)—N-(2-(6-((1-Cyclohexylpiperidin-3-yl)amino)-5-methylpyridazin-3-yl)-5-(trifluoromethyl)phenyl) methanesulfonamide]	–	< 0.5 µM
CN1CCC[C@@H](Nc2nnc(-c3ccc(C(F)(F)F)c4nn[nH]c34)cc2C(F)(F)F)C1 [Compound 24]	< 4.52	–
Cc1cc(-c2ccc(C(F)(F)F)cc2NC(=O)C(F)(F)C(F)(F)F)nnc1N[C@@H]1CCCN(C(C)C)C1 [Compound 125, 2,2,3,3,3-pentafluoro-N-[2-[6-[[(3R)-1-isopropyl-3-piperidyl]amino]-5-methyl-pyridazin-3-yl]-5-(trifluoromethyl)phenyl]propanamide]	5.30 to 6.00	–
CCN1CCC[C@@H](Nc2nnc(-c3ccc(C(F)(F)F)cc3NS(C)(=O)=O)cc2C2CC2)C1 [Compound 28, (R)—N-(2-(5-Cyclopropyl-6-((1-ethylpiperidin-3-yl)amino)pyridazin-3-yl)-5-(trifluoromethyl)phenyl) methane-sulfonamide]	> 6.30	–
Cc1cc(-c2ccc(C(F)(F)F)cc2NS(C)(=O)=O)nnc1N[C@@H]1CCCN(C2CC2)C1 [Compound 42, (R)—N-(2-(6-((1-Cyclopropylpiperidin-3-yl)amino)-5-methylpyridazin-3-yl)-5-(trifluoromethyl)phenyl) methanesulfonamide]	> 6.30	–
CN1CCC[C@@H](Nc2cc(C(F)(F)F)c(-c3ccc(C(F)(F)F)c(N)c3N)nn2)C1 [Compound 101, 3-[6-[[(3R)-1-methyl-3-piperidyl]amino]-4-(trifluoromethyl)pyridazin-3-yl]-6-(trifluoromethyl)benzene-1,2-diamine]	5.30 to 6.00	–
CCN1CCC[C@@H](Nc2cc(C)c(-c3ccc(C(F)(F)F)cc3NC(C)=O)nn2)C1 [Compound 134, (R)—N-(2-(6-((1-ethylpiperidin-3-yl)amino)-4-methylpyridazin-3-yl)-5-(trifluoromethyl)phenyl) acetamide]	6.00 to 6.30	–
Cc1cc(-c2ccc(C(F)(F)F)cc2NS(C)(=O)=O)nnc1N[C@@H]1CCCN(C2CCOCC2)C1 [Compound 38, (R)—N-(2-(5-Methyl-6-((1-(tetrahydro-2H-pyran-4-yl)piperidin-3-yl)amino)pyridazin-3-yl)-5-(trifluoromethyl)phenyl) methanesulfonamide]	> 6.30	–
Cc1cc(N[C@@H]2CCCN(CC3CCCCC3)C2)nnc1-c1ccc(C(F)(F)F)cc1NS(C)(=O)=O [Compound 40, N-[2-[6-[[(3R)-1-(cyclohexylmethyl)-3-piperidyl]amino]-4-methyl-pyridazin-3-yl]-5-(trifluoromethyl)phenyl]methanesulfon-amide]	> 6.30	–
Cc1cc(N[C@@H]2CCCN(C(C)C)C2)nnc1-c1ccc(C(F)(F)F)cc1NC(=O)C(C)(C)C [Compound 138, N-[2-[6-[[(3R)-1-isopropyl-3-piperidyl]amino]-4-methyl-pyridazin-3-yl]-5-(trifluoromethyl)phenyl]-2,2-dimethyl-propanamide]	5.30 to 6.00	–
CCN1CCC[C@@H](Nc2nnc(-c3ccc(C(F)(F)F)cc3NS(=O)(=O)C(C)C)cc2C)C1 [Compound 72]	4.52 to 5.30	–
CCN1CCC[C@@H](Nc2cc(C)c(-c3ccc(C(F)(F)F)cc3NC(=O)C(F)(F)F)nn2)C1 [Compound 116, N-[2-[6-[[(3R)-1-ethyl-3-piperidyl]amino]-4-methyl-pyridazin-3-yl]-5-(trifluoromethyl)phenyl]-2,2,2-trifluoro-acetamide]	> 6.30	–
CN1CCC[C@@H](Nc2cc(C(F)(F)F)c(-c3ccc(C(F)(F)F)c4nn[nH]c34)nn2)C1 [Compound 23]	< 4.52	–
CCN1CCC[C@@H](Nc2nnc(-c3ccc(C(F)(F)F)cc3NS(C)(=O)=O)c3c2C2CCC3CC2)C1 [Compound 30, (R)—N-(2-(4-((1-Ethylpiperidin-3-yl)amino)-5,6,7,8-tetrahydro-5,8-ethanophthalazin-1-yl)-5-(trifluoromethyl)phenyl) methanesulfonamide]	> 6.30	–
COCCN1CCC[C@@H](Nc2cc(C)c(-c3ccc(C(F)(F)F)cc3NS(C)(=O)=O)nn2)C1 [Compound 56, (R)—N-(2-(6-((1-(2-Methoxyethyl)piperidin-3-yl)amino)-4-methylpyridazin-3-yl)-5-(trifluoromethyl)phenyl) methanesulfonamide]	5.30 to 6.00	–
Cc1cc(N[C@@H]2CCCN(C)C2)nnc1-c1ccc(C(F)(F)F)c(N)c1N [Compound 100, (R)-3-(4-methyl-6-((1-methylpiperidin-3-yl)amino)pyridazin-3-yl)-6-(trifluoromethyl)benzene-1,2-diamine]	> 6.30	–
Cc1cc(-c2ccc(C(F)(F)F)c(N)c2N)nnc1N[C@@H]1CCCN(C)C1 [Compound 103, 3-[5-methyl-6-[[(3R)-1-methyl-3-piperidyl]amino]pyridazin-3-yl]-6-(trifluoromethyl)benzene-1,2-diamine]	4.52 to 5.30	–
CCNc1cc(C(F)(F)F)ccc1-c1nnc(N[C@@H]2CCCN(C(C)C)C2)cc1C [Compound 109, 6-[2-(ethylamino)-4-(trifluoromethyl)phenyl]-N-[(3R)-1-isopropyl-3-piperidyl]-5-methyl-pyridazin-3-amine]	> 6.30	–
